Paper PMC12947280, “An Antifungal with a Novel Mechanism of Action Discovered via Resistance Gene-Guided Genome Mining” (ACS Central Science, 2026)
Converted amounts (≈) assume the structure as drawn. Where two headings read alike, the source gives them in different places.

How the values were obtained:
ScALS = molecular target: T1, ScALS (Saccharomyces cerevisiae, UniProt P07342); test: Intact protein mass spectrometry; assay type: binding; details: 10 μM, 30 min
T1 construct: made in house; host or cells: E. coli BL21 (DE3), pET28a-ScILV2
T1 sequence (P07342 58-687): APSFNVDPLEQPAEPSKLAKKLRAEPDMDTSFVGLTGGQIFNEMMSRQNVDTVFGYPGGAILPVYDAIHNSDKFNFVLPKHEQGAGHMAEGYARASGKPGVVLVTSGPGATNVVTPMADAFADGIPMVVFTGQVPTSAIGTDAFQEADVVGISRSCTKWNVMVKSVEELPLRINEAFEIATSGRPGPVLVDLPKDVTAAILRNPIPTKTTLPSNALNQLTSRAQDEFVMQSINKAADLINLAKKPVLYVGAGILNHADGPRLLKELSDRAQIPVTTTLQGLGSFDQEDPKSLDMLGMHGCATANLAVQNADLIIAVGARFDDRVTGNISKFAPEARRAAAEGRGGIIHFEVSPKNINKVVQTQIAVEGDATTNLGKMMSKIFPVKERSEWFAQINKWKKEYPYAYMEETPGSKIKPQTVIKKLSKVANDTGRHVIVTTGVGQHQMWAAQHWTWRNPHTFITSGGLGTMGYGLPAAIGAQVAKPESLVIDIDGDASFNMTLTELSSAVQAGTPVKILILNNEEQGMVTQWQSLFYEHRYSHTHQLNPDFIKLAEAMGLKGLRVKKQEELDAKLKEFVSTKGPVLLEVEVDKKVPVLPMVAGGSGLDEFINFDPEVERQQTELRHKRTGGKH
From the text: We next characterized the structural basis for binding of 1 to ALS. Given the strained structure and the observed tight binding kinetics, we hypothesized that 1 may be binding covalently. Analysis of ALS from both AfALS and ScALS by intact protein mass spectrometry yielded traces with multiple proteoforms for both proteins. […] Limited proteolysis followed by peptide mapping localized the covalent attachment to the 239[…]258 peptide of ScALS with Lys251 and Asp252 (equivalent to Lys310 and Asp311 in AfALS) serving as the most likely attachment sites (Figure S7).
(§1) Biomek FX, Beckman Coulter Fullerton CA) were used to conduct serial dilutions and liquid […]
(§2) Solutions of 1 were added in an 11 point 2x serial dilution in DMSO with a maximum tested concentration of 32 μg/ml in the culture medium. Drug solution was added at 1% v/v into 200 μl […]
After digestion, the peptide mixture was immediately analysed by LC-MS/MS using a Waters I-class UPLC equipped with an ACQUITY UPLC BEH C18 column (2.1x50 mm, 1.7 µm, Waters) at 50 °C coupled to a Waters Synapt G2Si MS. […]

physchem = details: buffer, pH 7.4
[1] = test system: Aspergillus terreus ATCC MYA-3628; test: Antifungal screening, broth microdilution MIC; assay type: cell-based; details: for MIC: Aspergillus terreus ATCC MYA-3628
Experimental: (§3) Antifungal screening of 1
(§4) Antifungal screening was performed by Micromyx, LLC (Kalamazoo, Michigan, USA). Test organisms were either reference strains from the American Type Culture Collection (ATCC; Manassas, VA), the Centers for Disease Control and Prevention (CDC; Atlanta, GA), or clinical isolates from the Micromyx (MMX) collection. Upon receipt at Micromyx, the isolates were streaked under suitable conditions onto agar medium appropriate to each organism. The yeast isolates were incubated for 24 hr at 35 °C and the fungi were incubated for 7 to 13 days at 35 °C, as appropriate. Colonies harvested from these growth plates were resuspended in the appropriate medium containing a cryoprotectant. Aliquots of each suspension were then frozen […]
(§5) Prior to testing, the yeast isolates were streaked from frozen vials onto Sabouraud Dextrose Agar (SAB; Becton Dickenson [BD]/BBL; Sparks, MD, Lot No. 2228660) and were incubated at 35°C for 24 hr. Additional fungal isolates were streaked from frozen vials onto potato dextrose agar (BD/BBL; Sparks, MD, Lot No. 2046481) and incubated under optimal conditions for […]
(§6) All MIC measurements were performed in RPMI1640 from Hyclone Laboratories (Logan, UT;
(§7) Cat. No. SH3001104; Lot No. AC10257966A) buffered with MOPS to pH-7 from Millipore […]
(§8) MIC values were determined using a broth microdilution procedure described by CLSI. 5,6.
(§9) Automated liquid handlers (Multidrop 384, Labsystems, Helsinki, Finland; Biomek 3000 and […]
as §1, §2
(§10) A standardized inoculum of each test organism was prepared in appropriate media per CLSI methods.5,6 The plates were then inoculated with 10 µL of the diluted inoculum using the Biomek 3000 from low to high drug concentration, resulting in a final concentration of approximately 0.5 to 2.5 x 10^3 CFU/mL for yeast and 0.2 to 2.5 x 10^4 CFU/mL for the other fungi. An un-inoculated plate was incubated for the purpose of assessing solubility of the drug […]
(§11) The plates were stacked 3 to 4 high, covered with a sterile lid on the top plate, and incubated aerobically at 35 °C for 24, 48, and 72 h. For yeast, both the MIC based on complete inhibition and 50% inhibition were reported at 24 and 48 h. For other fungal isolates, the MIC values were recorded at 24 and 48 hr and were based on complete inhibition and 50% inhibition.
(§12) Intact protein LCMS analysis
(§13) 10 μM of recombinant S. cerevisiae ALS was incubated with 10 μM compound 1 in buffer (50 mM Tris pH 7.5, 100 mM KCl, 10 uM FAD, 1 mM TPP, 10 mM MgCl2 (with 2.5% DMSO from compound)) at 22 °C for 30 min. Unreacted 1 was removed by passing the reaction mixture through a 30 kDa MWCO filter (Millipore). The collected protein was then denatured and reduced by incubation with 6 M urea and 10 mM DTT at 37 °C for 1 h followed by 20 mM iodoacetamide alkylation for 30 min in dark. This reaction mixture then underwent buffer exchange into 100 mM Tris-HCl pH 8.0 and 10 mM CaCl2 buffer using a 30 kDa MWCO filter.
(§14) The protein was then incubated with sequencing grade chymotrypsin (Promega) (15:1,w/w) for […]
(§15) After digestion, the peptide mixture was immediately analysed by LC-MS/MS using a Waters I-class UPLC equipped with an ACQUITY UPLC BEH C18 column (2.1x50 mm, 1.7 µm, Waters) at 50 °C coupled to a Waters Synapt G2Si MS. The sample was injected and subjected to an LC gradient starting from 0.5% mobile phase B (ACN with 0.1% formic acid) for 5 min with linear increase to 40% B over 35 min. Mobile phase A was 0.1% formic acid water. Flow rate was maintained at 0.3 ml/min. MS/MS data was acquired in positive ionization mode with data dependent MS/MS acquisition. Peptide mapping was performed with PEAKs Studio 8.0 (Bioinformatics Solutions Inc.) followed by manual review to identify peptides putatively modified by covalent addition of 1. […]

[2] = test system: Rhizopus oryzae ATCC 11886; test: Antifungal screening, broth microdilution MIC; assay type: cell-based; details: for MIC: Rhizopus arrhizus, ATCC11886, Rhizopus oryzae ATCC 11886
Experimental: as §3, §4, §5, §6, §7, §8, §9, §1, §2, §10, §11, §12, §13, §14, §15

[3] = 24 hr, read-out: MIC 100% growth inhibition
[4] = 24 hr, read-out: MIC >50% growth inhibition
[5] = 48 hr, read-out: MIC 100% growth inhibition
[6] = 48 hr, read-out: MIC >50% growth inhibition

CCCC1C(C)=CC2CC=CC3(C)C2C1C(=O)C31C(=O)NC(CCCO)C1=O (stereo not drawn) [compound 1]
covalent modification of ScALS (intact mass shift) (ScALS): mass shifts consistent with covalent addition
half-life (physchem): 2.35 h
MIC [1, 3]: > 32 µg/mL
MIC [1, 4]: > 32 µg/mL
MIC [1, 5]: > 32 µg/mL
MIC [1, 6]: > 32 µg/mL
MIC (Table S5) ([1]; Aspergillus terreus, species summary): > 32
MIC [2, 3]: 1 µg/mL (≈ 2.59 µM)
MIC [2, 4]: 0.5 µg/mL (≈ 1.3 µM)
MIC [2, 5]: 16 µg/mL (≈ 41.5 µM)
MIC [2, 6]: 8 µg/mL (≈ 20.8 µM)
MIC (Table S5) ([2]; Rhizopus oryzae, species summary): 1
